# Experimental data taken from patent publication US20110136145A1, “METHODS FOR PROMOTING FUSION AND REPROGRAMMING OF SOMATIC CELLS” (THE JOHNS HOPKINS UNIVERSITY, priority 2008, published 2011).
# “Also recorded” adds a separate entry of the source.
# Biological target: T1, Jhdm2a (Homo sapiens, UniProt Q9Y4C1)
# T1 construct: expressed in transfected cells; host or cells: 293T cells
# T1 sequence (Q9Y4C1 1-1321): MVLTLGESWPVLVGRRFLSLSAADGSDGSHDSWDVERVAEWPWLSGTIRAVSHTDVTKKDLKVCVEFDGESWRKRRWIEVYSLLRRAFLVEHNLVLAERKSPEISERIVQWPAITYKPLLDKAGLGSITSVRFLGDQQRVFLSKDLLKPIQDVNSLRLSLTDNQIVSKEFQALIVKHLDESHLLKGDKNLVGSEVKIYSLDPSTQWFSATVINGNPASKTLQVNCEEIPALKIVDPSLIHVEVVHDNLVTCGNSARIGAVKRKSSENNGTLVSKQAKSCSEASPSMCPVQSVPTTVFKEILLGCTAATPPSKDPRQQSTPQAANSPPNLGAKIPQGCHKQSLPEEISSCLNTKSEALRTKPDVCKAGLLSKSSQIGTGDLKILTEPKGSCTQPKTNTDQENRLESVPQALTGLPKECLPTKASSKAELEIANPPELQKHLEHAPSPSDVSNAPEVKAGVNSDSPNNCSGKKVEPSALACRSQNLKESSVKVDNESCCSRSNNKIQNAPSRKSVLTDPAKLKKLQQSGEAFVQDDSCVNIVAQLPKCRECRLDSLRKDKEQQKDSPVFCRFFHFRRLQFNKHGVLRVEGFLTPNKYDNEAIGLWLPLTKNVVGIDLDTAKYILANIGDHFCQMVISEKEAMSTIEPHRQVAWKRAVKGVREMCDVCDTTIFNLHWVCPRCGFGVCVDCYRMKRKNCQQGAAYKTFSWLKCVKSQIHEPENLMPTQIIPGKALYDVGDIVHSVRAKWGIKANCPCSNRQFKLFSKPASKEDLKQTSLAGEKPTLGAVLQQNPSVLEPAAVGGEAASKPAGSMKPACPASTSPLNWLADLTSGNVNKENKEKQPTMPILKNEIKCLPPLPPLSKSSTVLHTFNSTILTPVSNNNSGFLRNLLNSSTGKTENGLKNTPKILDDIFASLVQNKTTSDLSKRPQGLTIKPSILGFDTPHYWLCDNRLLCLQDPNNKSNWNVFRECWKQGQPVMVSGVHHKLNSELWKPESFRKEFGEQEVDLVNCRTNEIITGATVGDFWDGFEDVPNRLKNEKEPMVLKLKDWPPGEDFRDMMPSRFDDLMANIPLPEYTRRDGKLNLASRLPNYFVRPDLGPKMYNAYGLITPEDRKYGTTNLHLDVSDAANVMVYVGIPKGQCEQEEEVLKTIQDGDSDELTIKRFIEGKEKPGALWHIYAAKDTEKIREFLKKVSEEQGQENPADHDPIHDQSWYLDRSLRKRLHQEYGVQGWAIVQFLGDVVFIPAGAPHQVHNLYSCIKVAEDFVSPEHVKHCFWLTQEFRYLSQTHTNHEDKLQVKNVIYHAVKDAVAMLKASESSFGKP
# Experiment: Immunolabeling assay of Jhdm2a-induced H3K9 demethylation in 293T cells
# Type: cell-based
# Conditions: 10 μM; 293T cells transfected with Jhdm2a-EGFP; vs DMSO
# Source text: (A) Inhibition of Jhdm2a induced histone demethylation by DMOG. Blocking effects of DMOG on Jhdm2a were examined in 293T cells transfected with a plasmid expressing Jhdm2a-EGFP fusion protein. In control cells treated with DMSO, histone 3 lysine 9 dimethylation (H3K9diM) immunostaining signal was lost in Jhdm2a-GFP transfected cells (arrows). […] DAPI labels all cell nuclei. Scale bar: 20 μm. (B-D) show DMOG attenuates ESC-induced reactivation of Oct4 expression from adult NSCs. […] Representative plots from multiple experiments are shown (B). Reprogramming frequencies from multiple experiments were quantified (C) for fusion population with the 48-hour treatment of DMSO or DMOG. Data represent mean±SEM. (n=3; ** P<0.01, Student's t-test). Shown in (D) is the cumulative distribution plot of DsRed+ population with graded GFP fluorescence intensities for comparison of the reprogramming efficacy in the presence of DMSO or DMOG (n=3 experiments; * P<0.01, Kolmogorov-Smirnov test).
# To confirm the blocking effects of DMOG on histone demethylases, an immuno labeling assay previously developed for JHDM2A was used. Overexpression of Jhdm2a in heterologous cell lines led to dramatic loss of H3K9 dimethylation, which was blocked by the DMOG treatment (10 μM FIG. 6A). […]
smiles,measurement,value
"COC(=O)CNC(=O)C(=O)OC [DMOG, dimethyloxalylglycine]",Jhdm2a-induced loss of H3K9 dimethylation,blocked; also recorded: H3K9 dimethylation signals are present in all cells
